The values that follow come from US9732119B2, “Immunomodulators” (BRISTOL-MYERS SQUIBB COMPANY, priority 2014, dated 2017).

The target of the assay is T1, PD-1-Ig binding to PD-L1-TVMV-His (PD-L1-His) (Homo sapiens, UniProt Q9NZQ7).
T1 construct: hPDL1(19-239)-TVMV-His; made in house; host or cells: HEK293T cells
The assay is described as follows: PD-1/PD-L1 Homogenous Time-Resolved Fluorescence (HTRF) binding assay. The conditions noted are these: PD-1-Ig (20 nM) / PD-L1-His (10 nM). Summed up:
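HTRF competition: compound pre-incubated 15 min with PD-L1-His (10 nM final), then PD-1-Ig (20 nM final) added for 15 min in dPBS, 0.1% BSA, 0.05% Tween-20. Detection with Eu-cryptate anti-Ig (1 nM) and APC anti-His (20 nM) antibodies.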
(In general: In TR-FRET formats the signal depends on donor and acceptor labels being close together.)

Each structure is given as a SMILES string. pIC50: −log10 of the molar value.

T1 sequence (Q9NZQ7 with tags, fused parts or gaps): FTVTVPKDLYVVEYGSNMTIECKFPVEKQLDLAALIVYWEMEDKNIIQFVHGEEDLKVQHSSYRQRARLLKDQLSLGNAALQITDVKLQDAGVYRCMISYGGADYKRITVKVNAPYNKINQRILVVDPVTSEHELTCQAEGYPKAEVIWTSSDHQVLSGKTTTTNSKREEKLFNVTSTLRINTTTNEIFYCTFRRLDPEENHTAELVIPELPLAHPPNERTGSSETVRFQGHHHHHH

For orientation: pIC50 means the IC50 on a negative log10 scale, so that one unit is a factor of ten. As to `CCCC[C@H]1C(=O)N(C)[C@@H](CCCC)C(=O)N[C@@H](C)C(=O)N[C@H](C(=O)NCC(N)=O)CNCC(=O)N[C@@H](Cc2ccc(O)cc2)C(=O)N(C)[C@@H](C)C(=O)N[C@@H](CC(=O)O)C(=O)N2CCC[C@H]2C(=O)N[C@@H](Cc2cnc[nH]2)C(=O)N[C@@H](CCC(N)=O)C(=O)N2C[C@H](O)C[C@H]2C(=O)N[C@@H](Cc2c[nH]c3ccccc23)C(=O)N[C@@H](CO)C(=O)N[C@@H](Cc2c[nH]c3ccccc23)C(=O)N1C` [Example 10011], the pIC50 (range classes) was 8.00 to 9.00.
The same measure, in the same setting: to `CCCC[C@H]1C(=O)N(C)[C@@H](CCCC)C(=O)N[C@@H](C)C(=O)N[C@H](C(=O)NCC(N)=O)CCNCC(=O)N[C@@H](Cc2ccc(O)cc2)C(=O)N(C)[C@@H](C)C(=O)N[C@@H](CC(=O)O)C(=O)N2CCC[C@H]2C(=O)N[C@@H](Cc2cnc[nH]2)C(=O)N[C@@H](CCC(N)=O)C(=O)N2C[C@H](O)C[C@H]2C(=O)N[C@@H](Cc2c[nH]c3ccccc23)C(=O)N[C@@H](CO)C(=O)N[C@@H](Cc2c[nH]c3ccccc23)C(=O)N1C` [Example 10012] belongs 7.00 to 8.00.
The compound `CCCC[C@H]1C(=O)N(C)[C@@H](CCCC)C(=O)N[C@@H](C)C(=O)N[C@H](C(=O)NCC(N)=O)CCCNCC(=O)N[C@@H](Cc2ccc(O)cc2)C(=O)N(C)[C@@H](C)C(=O)N[C@@H](CC(=O)O)C(=O)N2CCC[C@H]2C(=O)N[C@@H](Cc2cnc[nH]2)C(=O)N[C@@H](CCC(N)=O)C(=O)N2C[C@H](O)C[C@H]2C(=O)N[C@@H](Cc2c[nH]c3ccccc23)C(=O)N[C@@H](CO)C(=O)N[C@@H](Cc2c[nH]c3ccccc23)C(=O)N1C` [Example 10013] had a pIC50 (numeric values) of 7.15.
Where the note is “range classes”, `CCCC[C@H]1C(=O)N(C)[C@@H](CCCC)C(=O)N[C@@H](C)C(=O)N[C@H](C(=O)NCC(N)=O)CNCC(=O)N[C@@H](Cc2ccc(O)cc2)C(=O)N(C)[C@@H](C)C(=O)N[C@@H](CC(=O)O)C(=O)N2CCC[C@H]2C(=O)N[C@@H](Cc2cnc[nH]2)C(=O)N[C@@H](CCC(N)=O)C(=O)N2C[C@H](O)C[C@H]2C(=O)N[C@@H](Cc2c[nH]c3ccccc23)C(=O)N[C@@H](CO)C(=O)N[C@@H](Cc2cn(CC(=O)O)c3ccccc23)C(=O)N1C` [Example 10014] had a negative-log IC50 (pIC50) of 8.00 to 9.00.
Same read-out and setting: to `CCCC[C@H]1C(=O)N(C)[C@@H](CCCC)C(=O)N[C@@H](C)C(=O)N[C@H](C(=O)NCC(N)=O)CCNCC(=O)N[C@@H](Cc2ccc(O)cc2)C(=O)N(C)[C@@H](C)C(=O)N[C@@H](CC(=O)O)C(=O)N2CCC[C@H]2C(=O)N[C@@H](Cc2cnc[nH]2)C(=O)N[C@@H](CCC(N)=O)C(=O)N2C[C@H](O)C[C@H]2C(=O)N[C@@H](Cc2c[nH]c3ccccc23)C(=O)N[C@@H](CO)C(=O)N[C@@H](Cc2cn(CC(=O)O)c3ccccc23)C(=O)N1C` [Example 10015] belongs 8.00 to 9.00.
Regarding `CCCC[C@H]1C(=O)N(C)[C@@H](CCCC)C(=O)N[C@@H](C)C(=O)N[C@H](C(=O)NCC(N)=O)CCCNCC(=O)N[C@@H](Cc2ccc(O)cc2)C(=O)N(C)[C@@H](C)C(=O)N[C@@H](CC(=O)O)C(=O)N2CCC[C@H]2C(=O)N[C@@H](Cc2cnc[nH]2)C(=O)N[C@@H](CCC(N)=O)C(=O)N2C[C@H](O)C[C@H]2C(=O)N[C@@H](Cc2c[nH]c3ccccc23)C(=O)N[C@@H](CO)C(=O)N[C@@H](Cc2cn(CC(=O)O)c3ccccc23)C(=O)N1C` [Example 10016], where the note is “range classes”, the pIC50 is 8.00 to 9.00.
`CCCC[C@H]1C(=O)N(C)[C@@H](CCCC)C(=O)N[C@@H](CC(C)C)C(=O)N[C@H](C(=O)NCC(N)=O)CNCC(=O)N[C@@H](Cc2ccc(O)cc2)C(=O)N(C)[C@@H](C)C(=O)N[C@@H](CC(N)=O)C(=O)N2CCC[C@H]2C(=O)N[C@@H](Cc2cnc[nH]2)C(=O)N[C@@H](CCC(N)=O)C(=O)N2C[C@H](O)C[C@H]2C(=O)N[C@@H](Cc2c[nH]c3ccccc23)C(=O)NCC(=O)N[C@@H](Cc2c[nH]c3ccccc23)C(=O)N1C` [Example 10017]: for the setting “range classes”, the pIC50 is 8.00 to 9.00.
Same read-out and setting: to `CCCC[C@H]1C(=O)N(C)[C@@H](CCCC)C(=O)N[C@@H](CC(C)C)C(=O)N[C@H](C(=O)NCC(N)=O)CCNCC(=O)N[C@@H](Cc2ccc(O)cc2)C(=O)N(C)[C@@H](C)C(=O)N[C@@H](CC(N)=O)C(=O)N2CCC[C@H]2C(=O)N[C@@H](Cc2cnc[nH]2)C(=O)N[C@@H](CCC(N)=O)C(=O)N2C[C@H](O)C[C@H]2C(=O)N[C@@H](Cc2c[nH]c3ccccc23)C(=O)NCC(=O)N[C@@H](Cc2c[nH]c3ccccc23)C(=O)N1C` [Example 10018] belongs 7.00 to 8.00; to `CCCC[C@H]1C(=O)N(C)[C@@H](CCCC)C(=O)N[C@@H](CC(C)C)C(=O)N[C@H](C(=O)NCC(N)=O)CCCNCC(=O)N[C@@H](Cc2ccc(O)cc2)C(=O)N(C)[C@@H](C)C(=O)N[C@@H](CC(N)=O)C(=O)N2CCC[C@H]2C(=O)N[C@@H](Cc2cnc[nH]2)C(=O)N[C@@H](CCC(N)=O)C(=O)N2C[C@H](O)C[C@H]2C(=O)N[C@@H](Cc2c[nH]c3ccccc23)C(=O)NCC(=O)N[C@@H](Cc2c[nH]c3ccccc23)C(=O)N1C` [Example 10019], 5.00 to 7.00.
Under “range classes”, `CCCC[C@H]1C(=O)N(C)[C@@H](CCCC)C(=O)N[C@@H](CC(C)C)C(=O)N[C@H](C(=O)NCC(N)=O)CNCC(=O)N[C@@H](Cc2ccc(O)cc2)C(=O)N(C)[C@@H](C)C(=O)N[C@@H](CC(N)=O)C(=O)N2CCC[C@H]2C(=O)N[C@@H](Cc2cnc[nH]2)C(=O)N[C@@H](CCC(N)=O)C(=O)N2C[C@H](O)C[C@H]2C(=O)N[C@@H](Cc2c[nH]c3ccccc23)C(=O)NCC(=O)N[C@@H](Cc2cn(CC(=O)O)c3ccccc23)C(=O)N1C` [Example 10020] gave a pIC50 of 7.00 to 8.00.
Where the note is “range classes”, `CCCC[C@H]1C(=O)N(C)[C@@H](CCCC)C(=O)N[C@@H](CC(C)C)C(=O)N[C@H](C(=O)NCC(N)=O)CCNCC(=O)N[C@@H](Cc2ccc(O)cc2)C(=O)N(C)[C@@H](C)C(=O)N[C@@H](CC(N)=O)C(=O)N2CCC[C@H]2C(=O)N[C@@H](Cc2cnc[nH]2)C(=O)N[C@@H](CCC(N)=O)C(=O)N2C[C@H](O)C[C@H]2C(=O)N[C@@H](Cc2c[nH]c3ccccc23)C(=O)NCC(=O)N[C@@H](Cc2cn(CC(=O)O)c3ccccc23)C(=O)N1C` [Example 10021] had a pIC50 of 7.00 to 8.00.
As for `CCCC[C@H]1C(=O)N(C)[C@@H](CCCC)C(=O)N[C@@H](CC(C)C)C(=O)N[C@H](C(=O)NCC(N)=O)CCCNCC(=O)N[C@@H](Cc2ccc(O)cc2)C(=O)N(C)[C@@H](C)C(=O)N[C@@H](CC(N)=O)C(=O)N2CCC[C@H]2C(=O)N[C@@H](Cc2cnc[nH]2)C(=O)N[C@@H](CCC(N)=O)C(=O)N2C[C@H](O)C[C@H]2C(=O)N[C@@H](Cc2c[nH]c3ccccc23)C(=O)NCC(=O)N[C@@H](Cc2cn(CC(=O)O)c3ccccc23)C(=O)N1C` [Example 10022], for the setting “range classes”, the pIC50 was 7.00 to 8.00.
On the same count and under the same terms, for `CCCC[C@H]1C(=O)N(C)[C@@H](CCCC)C(=O)N[C@@H](CCC(=O)O)C(=O)N[C@H](C(=O)NCC(N)=O)CCNCC(=O)N[C@@H](Cc2ccc(O)cc2)C(=O)N(C)[C@@H](C)C(=O)N[C@@H](CC(=O)O)C(=O)N2CCC[C@H]2C(=O)N[C@@H](Cc2cnc[nH]2)C(=O)N[C@@H](CCC(N)=O)C(=O)N2C[C@H](O)C[C@H]2C(=O)N[C@@H](Cc2c[nH]c3ccccc23)C(=O)N[C@@H](CO)C(=O)N[C@@H](Cc2c[nH]c3ccccc23)C(=O)N1C` [Example 10023] the value was 5.00 to 7.00; for `CCCC[C@H]1C(=O)N(C)[C@@H](CCCC)C(=O)N[C@@H](CO)C(=O)N[C@H](C(=O)NCC(N)=O)CNCC(=O)N[C@@H](Cc2ccc(O)cc2)C(=O)N(C)[C@@H](C)C(=O)N[C@@H](CC(N)=O)C(=O)N2CCC[C@H]2C(=O)N[C@@H](Cc2cnc[nH]2)C(=O)N[C@@H](CCC(N)=O)C(=O)N2C[C@H](O)C[C@H]2C(=O)N[C@@H](Cc2c[nH]c3ccccc23)C(=O)N[C@@H](CO)C(=O)N[C@@H](Cc2c[nH]c3ccccc23)C(=O)N1C` [Example 10024], 7.00 to 8.00; for `CCCC[C@H]1C(=O)N(C)[C@@H](CCCC)C(=O)N[C@@H](CO)C(=O)N[C@H](C(=O)NCC(N)=O)CCCNCC(=O)N[C@@H](Cc2ccc(O)cc2)C(=O)N(C)[C@@H](C)C(=O)N[C@@H](CC(N)=O)C(=O)N2CCC[C@H]2C(=O)N[C@@H](Cc2cnc[nH]2)C(=O)N[C@@H](CCC(N)=O)C(=O)N2C[C@H](O)C[C@H]2C(=O)N[C@@H](Cc2c[nH]c3ccccc23)C(=O)N[C@@H](CO)C(=O)N[C@@H](Cc2c[nH]c3ccccc23)C(=O)N1C` [Example 10025], 5.00 to 7.00.
`CCCC[C@H]1C(=O)N(C)[C@@H](CCCC)C(=O)N[C@@H](CC(C)C)C(=O)N[C@H](C(=O)NCC(N)=O)CNCC(=O)N[C@@H](Cc2ccc(O)cc2)C(=O)N(C)[C@@H](C)C(=O)N[C@@H](CC(N)=O)C(=O)N2CCC[C@H]2C(=O)N[C@@H](Cc2cnc[nH]2)C(=O)N[C@@H](CC(C)C)C(=O)N2C[C@H](O)C[C@H]2C(=O)N[C@@H](Cc2c[nH]c3ccccc23)C(=O)NCC(=O)N[C@@H](Cc2c[nH]c3ccccc23)C(=O)N1C` [Example 10026]: the pIC50 (range classes) is 7.00 to 8.00.
`CCCC[C@H]1C(=O)N(C)[C@@H](CCCC)C(=O)N[C@@H](CC(C)C)C(=O)N[C@H](C(=O)NCC(N)=O)CCNCC(=O)N[C@@H](Cc2ccc(O)cc2)C(=O)N(C)[C@@H](C)C(=O)N[C@@H](CC(N)=O)C(=O)N2CCC[C@H]2C(=O)N[C@@H](Cc2cnc[nH]2)C(=O)N[C@@H](CC(C)C)C(=O)N2C[C@H](O)C[C@H]2C(=O)N[C@@H](Cc2c[nH]c3ccccc23)C(=O)NCC(=O)N[C@@H](Cc2c[nH]c3ccccc23)C(=O)N1C` [Example 10027] had a pIC50 (numeric values) of 8.16.
Where the note is “range classes”, `CCCC[C@H]1C(=O)N(C)[C@@H](CCCC)C(=O)N[C@@H](CC(C)C)C(=O)N[C@H](C(=O)NCC(N)=O)CCCNCC(=O)N[C@@H](Cc2ccc(O)cc2)C(=O)N(C)[C@@H](C)C(=O)N[C@@H](CC(N)=O)C(=O)N2CCC[C@H]2C(=O)N[C@@H](Cc2cnc[nH]2)C(=O)N[C@@H](CC(C)C)C(=O)N2C[C@H](O)C[C@H]2C(=O)N[C@@H](Cc2c[nH]c3ccccc23)C(=O)NCC(=O)N[C@@H](Cc2c[nH]c3ccccc23)C(=O)N1C` [Example 10028] gave a pIC50 of 5.00 to 7.00.
